The values below come from patent US11878970B2, “Allosteric chromenone inhibitors of phosphoinositide 3-kinase (PI3K) for the treatment of disease” (Petra Pharma Corporation, priority 2021, dated 2024).

In assay [1] the target is T1, PI3K-α (PIK3CA) H1047R mutant, p110α/p85α complex (Homo sapiens, UniProt P42336, H1047R).
T1 construct: Recombinant, catalytically active human full length PIK3KA Wild-type and H1047R mutant; 6×His (N); purchased EMD Millipore Sigma 14-792M
The assay can be described thus: PI3K-alpha kinase (PIK3CA) biochemical activity, ADP-Glo, H1047R mutant. The note with it: Soy PI lipid substrate. The method in brief:
(§1)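 ADP formation measured by ADP-Glo luminescence after reaction at 27 °C to about 10% ATP turnover, using 20 uM ATP, 50 uM PIP2diC8 or soy PI lipid, HEPES pH 7.4 with MgCl2. Enzyme (1-5 nM WT or H1047R p110α/p85α) and compound preincubated 1 h first; 10-point 1:3 curves fitted four-parameter for IC50.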

The target in assay [2] is T2, PI3K-α (PIK3CA) wild-type (WT), p110α/p85α complex (Homo sapiens, UniProt P42336).
T2 construct: Recombinant, catalytically active human full length PIK3KA Wild-type and H1047R mutant; 6×His (N); purchased EMD Millipore Sigma 14-602M
The assay can be described thus: PI3K-alpha kinase (PIK3CA) biochemical activity, ADP-Glo, wild-type. As to conditions: Soy PI lipid substrate. The method in brief: as §1
A general note: ADP-Glo first removes unused ATP, then detects ADP through luciferase.

The target in assay [3] is PI3K-α (PIK3CA) in MDA-MB-453 cells (Homo sapiens, UniProt P42336). As to the kind of experiment: PI3K-alpha kinase (PIK3CA) in vitro cell based assay, MDA-MB-453 cells, SureFire Ultra AlphaLisa. As to conditions: read-out: PI3K-α (PIK3CA) in vitro cell based assay IC50. The method in brief:
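Cells treated 3 h in serum-free MEM with 1 μg/mL insulin, 10-point 1:3 series in 0.3% DMSO, then lysed for SureFire Ultra AlphaLisa read-out. Inhibition normalized to DMSO (max) and 1 μM GDC-0032 (min); duplicate averages fitted by 4-parameter logistic for relative IC50.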
(Alpha assays give light when donor and acceptor beads are brought close together.)

SMILES strings stand for the structures. A value given as a limit tells only on which side of the number the result lay.

Sequence of PI3K-α (PIK3CA) in MDA-MB-453 cells (P27986 2-724): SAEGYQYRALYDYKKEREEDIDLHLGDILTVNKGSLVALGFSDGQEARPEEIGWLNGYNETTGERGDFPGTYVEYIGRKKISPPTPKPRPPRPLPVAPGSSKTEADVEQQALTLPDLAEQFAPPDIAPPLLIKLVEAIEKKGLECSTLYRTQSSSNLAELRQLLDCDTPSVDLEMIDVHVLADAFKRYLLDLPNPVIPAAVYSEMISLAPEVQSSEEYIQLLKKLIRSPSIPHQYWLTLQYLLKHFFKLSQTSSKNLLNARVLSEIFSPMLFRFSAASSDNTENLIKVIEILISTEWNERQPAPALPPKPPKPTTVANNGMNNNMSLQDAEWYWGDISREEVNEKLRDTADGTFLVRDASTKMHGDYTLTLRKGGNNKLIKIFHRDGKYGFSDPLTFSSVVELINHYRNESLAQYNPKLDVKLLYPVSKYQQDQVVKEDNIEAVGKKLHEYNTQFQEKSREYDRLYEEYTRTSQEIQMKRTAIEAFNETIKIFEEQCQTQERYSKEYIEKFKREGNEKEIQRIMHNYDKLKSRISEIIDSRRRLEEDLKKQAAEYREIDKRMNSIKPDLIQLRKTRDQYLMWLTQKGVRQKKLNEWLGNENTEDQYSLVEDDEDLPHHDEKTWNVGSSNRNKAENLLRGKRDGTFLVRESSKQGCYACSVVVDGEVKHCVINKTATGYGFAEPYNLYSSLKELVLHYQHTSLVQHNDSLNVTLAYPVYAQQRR
Sequence of PI3K-α (PIK3CA) in MDA-MB-453 cells (P42336 whole entry): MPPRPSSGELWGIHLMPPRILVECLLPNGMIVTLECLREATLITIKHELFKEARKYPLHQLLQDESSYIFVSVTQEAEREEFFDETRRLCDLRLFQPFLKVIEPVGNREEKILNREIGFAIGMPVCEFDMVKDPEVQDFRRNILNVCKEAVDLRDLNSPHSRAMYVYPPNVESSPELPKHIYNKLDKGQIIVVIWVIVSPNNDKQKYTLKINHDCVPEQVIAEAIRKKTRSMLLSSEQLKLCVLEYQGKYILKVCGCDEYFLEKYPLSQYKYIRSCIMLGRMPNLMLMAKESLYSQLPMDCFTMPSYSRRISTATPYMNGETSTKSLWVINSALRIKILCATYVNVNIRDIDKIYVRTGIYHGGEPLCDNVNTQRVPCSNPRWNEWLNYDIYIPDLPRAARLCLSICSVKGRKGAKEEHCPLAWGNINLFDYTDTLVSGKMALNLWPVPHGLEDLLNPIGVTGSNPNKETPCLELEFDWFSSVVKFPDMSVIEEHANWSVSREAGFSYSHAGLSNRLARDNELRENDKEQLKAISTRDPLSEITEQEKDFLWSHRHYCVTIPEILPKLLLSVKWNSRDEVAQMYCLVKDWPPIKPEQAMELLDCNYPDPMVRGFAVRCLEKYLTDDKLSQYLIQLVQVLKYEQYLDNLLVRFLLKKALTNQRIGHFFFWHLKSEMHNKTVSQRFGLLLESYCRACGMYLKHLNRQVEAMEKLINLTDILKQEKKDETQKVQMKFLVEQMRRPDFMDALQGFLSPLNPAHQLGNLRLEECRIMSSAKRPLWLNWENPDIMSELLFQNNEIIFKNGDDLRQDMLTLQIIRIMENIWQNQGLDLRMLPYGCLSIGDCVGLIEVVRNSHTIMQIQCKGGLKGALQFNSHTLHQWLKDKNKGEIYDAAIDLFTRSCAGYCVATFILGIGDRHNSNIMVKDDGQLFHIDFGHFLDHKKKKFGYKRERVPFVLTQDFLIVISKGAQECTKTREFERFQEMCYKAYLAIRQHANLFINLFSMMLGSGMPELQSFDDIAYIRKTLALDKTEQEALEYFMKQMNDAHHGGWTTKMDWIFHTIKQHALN
T1 sequence (P42336 whole entry H1047R): as the sequence (P42336 whole entry) above, with H1047R counted along it
T1 sequence (P27986 whole entry partner): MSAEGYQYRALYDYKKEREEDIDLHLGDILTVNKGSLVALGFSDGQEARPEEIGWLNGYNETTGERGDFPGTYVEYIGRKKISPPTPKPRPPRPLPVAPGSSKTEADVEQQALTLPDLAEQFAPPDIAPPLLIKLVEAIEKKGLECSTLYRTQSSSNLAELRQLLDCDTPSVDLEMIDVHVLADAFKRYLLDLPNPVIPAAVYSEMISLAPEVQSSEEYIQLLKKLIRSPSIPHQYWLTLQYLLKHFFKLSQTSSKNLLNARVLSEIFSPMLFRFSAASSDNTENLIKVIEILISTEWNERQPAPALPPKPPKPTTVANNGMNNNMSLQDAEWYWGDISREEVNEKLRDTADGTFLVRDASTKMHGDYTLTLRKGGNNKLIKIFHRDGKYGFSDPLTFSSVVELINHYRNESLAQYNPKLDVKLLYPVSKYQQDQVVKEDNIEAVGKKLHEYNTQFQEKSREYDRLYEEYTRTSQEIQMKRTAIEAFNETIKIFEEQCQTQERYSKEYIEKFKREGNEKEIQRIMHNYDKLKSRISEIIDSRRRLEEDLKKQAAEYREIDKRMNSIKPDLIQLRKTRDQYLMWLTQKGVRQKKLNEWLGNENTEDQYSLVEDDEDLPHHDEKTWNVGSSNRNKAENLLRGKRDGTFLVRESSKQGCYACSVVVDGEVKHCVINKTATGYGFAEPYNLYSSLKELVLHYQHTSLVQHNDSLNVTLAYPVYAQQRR

On to `Cc1cc(C(C)Nc2ccccc2C(=O)O)c2oc(-c3ccc4nc(C#N)ccc4c3)cc(=O)c2c1` (single isomer, unassigned) [Example 207, 2-[1-[2-(2-Cyano-6-quinolyl)-6-methyl-4-oxo-chromen-8-yl]ethylamino]benzoic acid], for which the results for the IC50 in assay [1], in assay [2] and in assay [3] were below 500 nM, 500 to 1000 nM and 50 to 100 nM, respectively.

Take `Cc1cc([C@@H](C)Nc2ccc(C)nc2C(=O)O)c2oc(-c3ccc4nc(C)cn4c3)cc(=O)c2c1` [Example 225, 6-Methyl-3-[[(1R)-1-[6-methyl-2-(2-methylimidazo[1,2-a]pyridin-6-yl)-4-oxo-chromen-8-yl]ethyl]amino]pyridine-2-carboxylic acid]: the IC50 in assay [1] is below 500 nM; in assay [2], 1000 to 5000 nM; in assay [3] it was 100 to 500 nM.

Turning to `CC(Nc1ccc(Cl)nc1C(=O)O)c1cc(C(F)(F)F)cc2c(=O)cc(-c3ccc4cnn(C)c4c3)oc12` (single isomer, unassigned) [Example 108, 6-Chloro-3-[1-[2-(1-methylindazol-6-yl)-4-oxo-6-(trifluoromethyl)chromen-8-yl]ethylamino]pyridine-2-carboxylic acid], the IC50 is below 500 nM in assay [1], 500 to 1000 nM in assay [2] and below 50 nM in assay [3].

Take `Cc1cc(C(C)Nc2ccccc2C(=O)O)c2oc(-c3ccc4cn[nH]c4c3)cc(=O)c2c1` (single isomer, unassigned) [Example 63, 2-[1-[2-(1H-Indazol-6-yl)-6-methyl-4-oxo-chromen-8-yl]ethylamino]benzoic acid]: the figures for the IC50 in assay [1], in assay [2] and in assay [3] were below 500 nM, 500 to 1000 nM and below 50 nM, respectively.

Take `Cc1cc([C@@H](C)Nc2ccc(F)cc2C(=O)O)c2oc(-c3ccc4nn(C)cc4c3)c(C)c(=O)c2c1` [Example 253, 2-[[(1R)-1-[3,6-Dimethyl-2-(2-methylindazol-5-yl)-4-oxo-chromen-8-yl]ethyl]amino]-5-fluoro-benzoic acid]: the IC50 in assay [1] is below 500 nM; in assay [2] it was below 500 nM; in assay [3], below 50 nM.

Regarding `CC(Nc1ccc(Cl)nc1C(=O)O)c1cc(C(F)(F)F)cc2c(=O)cc(-c3cc(Cl)c4nn(C)cc4c3)oc12` (single isomer, unassigned) [Example 193, 6-Chloro-3-[1-[2-(7-chloro-2-methyl-indazol-5-yl)-4-oxo-6-(trifluoromethyl)chromen-8-yl]ethylamino]pyridine-2-carboxylic acid], the IC50 is below 500 nM in assay [1], 500 to 1000 nM in assay [2] and below 50 nM in assay [3].

On to `Cc1cc([C@@H](C)Nc2ccc(C)nc2C(=O)O)c2oc(-c3ccc4nc(C)sc4n3)cc(=O)c2c1` [Example 250, 6-Methyl-3-[[(1R)-1-[6-methyl-2-(2-methylthiazolo[5,4-b]pyridin-5-yl)-4-oxo-chromen-8-yl]ethyl]amino]pyridine-2-carboxylic acid], for which the IC50 in assay [1] fell in the range of 1000 to 5000 nM; in assay [2] it was 5000 to 10000 nM; in assay [3] it was 100 to 500 nM.

Take `Cc1cc([C@@H](C)Nc2ccc(Cl)cc2C(=O)O)c2oc(-c3ccc4c(cnn4C)c3)c(C)c(=O)c2c1` [Example 259, 5-Chloro-2-[[(1R)-1-[3,6-dimethyl-2-(1-methylindazol-5-yl)-4-oxo-chromen-8-yl]ethyl]amino]benzoic acid]: the figures for the IC50 in assay [1], in assay [2] and in assay [3] were below 500 nM, below 500 nM and 50 to 100 nM, respectively.

With `Cc1cc(C(C)Nc2ccc(Cl)nc2C(=O)O)c2oc(-c3ccc4nc(C)cn4c3)c(C)c(=O)c2c1` (single isomer, unassigned) [Example 178, 6-Chloro-3-[1-[3,6-dimethyl-2-(2-methylimidazo[1,2-a]pyridin-6-yl)-4-oxo-chromen-8-yl]ethylamino]pyridine-2-carboxylic acid], the IC50 in assay [1] is below 500 nM; in assay [2], 500 to 1000 nM; in assay [3], 50 to 100 nM.

In the case of `Cc1cc(C(C)Nc2ccccc2C(=O)O)c2oc(-c3ccc4oc(C)nc4c3)cc(=O)c2c1` (single isomer, unassigned) [Example 19, 2-[1-[6-Methyl-2-(2-methyl-1,3-benzoxazol-5-yl)-4-oxo-chromen-8-yl]ethylamino]benzoic acid], the IC50 is below 500 nM in assay [1], 1000 to 5000 nM in assay [2] and above 500 nM in assay [3].

Consider `Cc1cc(C(C)Nc2ccccc2C(=O)O)c2oc(-c3cnn4cccnc34)cc(=O)c2c1` (single isomer, unassigned) [Example 33, 2-[1-(6-Methyl-4-oxo-2-pyrazolo[1,5-a]pyrimidin-3-yl-chromen-8-yl)ethylamino]benzoic acid], for which the values for the half-inhibitory concentration (IC50) in assay [1], in assay [2] and in assay [3] were above 10000 nM, above 10000 nM and above 500 nM, respectively.

Take `Cc1cc(C(C)Nc2ccccc2C(=O)O)c2oc(-c3cc4ccncc4o3)cc(=O)c2c1` (single isomer, unassigned) [Example 40, 2-[1-(2-Furo[2,3-c]pyridin-2-yl-6-methyl-4-oxo-chromen-8-yl)ethylamino]benzoic acid]: the IC50 in assay [1] was in the range of 1000 to 5000 nM; in assay [2], 5000 to 10000 nM; in assay [3], 100 to 500 nM.

In the case of `COc1ccc2nc(-c3cc(=O)c4cc(C)cc([C@@H](C)Nc5ccccc5C(=O)O)c4o3)ccc2n1` [Example 255, 2-[[(1R)-1-[2-(6-Methoxy-1,5-naphthyridin-2-yl)-6-methyl-4-oxo-chromen-8-yl]ethyl]amino]benzoic acid], the figures for the concentration for half-maximal inhibition (IC50) in assay [1], in assay [2] and in assay [3] were 500 to 1000 nM, 1000 to 5000 nM and 50 to 100 nM, respectively.

`Cc1cc(C(C)Nc2ccccc2C(=O)O)c2oc(-c3ccc4nccn4n3)cc(=O)c2c1` (single isomer, unassigned) [Example 35, 2-[1-(2-Imidazo[1,2-b]pyridazin-6-yl-6-methyl-4-oxo-chromen-8-yl)ethylamino]benzoic acid]: the IC50 in assay [1] was 5000 to 10000 nM; in assay [2], 5000 to 10000 nM; in assay [3], above 500 nM.

For `Cc1cc([C@@H](C)Nc2ccc(Cl)cc2C(=O)O)c2oc(-c3ccc4cnn(C)c4c3)cc(=O)c2c1` [Example 237, 5-Chloro-2-[[(1R)-1-[6-methyl-2-(1-methylindazol-6-yl)-4-oxo-chromen-8-yl]ethyl]amino]benzoic acid], the results for the IC50 in assay [1], in assay [2] and in assay [3] were below 500 nM, 500 to 1000 nM and 50 to 100 nM, respectively.

On to `Cc1cc(C(C)Nc2ccccc2C(=O)O)c2oc(-c3cc4ccccc4[nH]3)cc(=O)c2c1` (single isomer, unassigned) [Example 68, 2-[1-[2-(1H-Indol-2-yl)-6-methyl-4-oxo-chromen-8-yl]ethylamino]benzoic acid], for which the IC50 was below 500 nM in assay [1], 500 to 1000 nM in assay [2] and below 50 nM in assay [3].

Consider `Cc1cc(C(C)Nc2ccccc2C(=O)O)c2oc(-c3ccc4c(c3)CN(C)C4=O)cc(=O)c2c1` (single isomer, unassigned) [Example 32, 2-[1-[6-Methyl-2-(2-methyl-1-oxo-isoindolin-5-yl)-4-oxo-chromen-8-yl]ethylamino]benzoic acid], for which the figures for the IC50 in assay [1], in assay [2] and in assay [3] were above 10000 nM, 5000 to 10000 nM and above 500 nM, respectively.

For the compound `Cc1cc(C(C)Nc2ccccc2C(=O)O)c2oc(-c3ccc4c(c3)OC(F)(F)O4)cc(=O)c2c1` (single isomer, unassigned) [Example 64, 2-[1-[2-(2,2-Difluoro-1,3-benzodioxol-5-yl)-6-methyl-4-oxo-chromen-8-yl]ethylamino]benzoic acid], the IC50 in assay [1] was below 500 nM; in assay [2], 1000 to 5000 nM; in assay [3] it was below 50 nM.

Broadly, the IC50 is the concentration that gives 50% inhibition.
